Each block holds one molecule with its values, some of them ahead of it.
Tests used:
[1] = The drug is tested on Edwardsiella tarda strain: ATCC23685 for biotransformation. The drug concentrations were measured before and after a 12-h incubation by liquid-chromatography-coupled mass spectrometry (LC–MS); conditions: 2 µM
[2] = victivallis vadensis, 12 h, 2 µM
Description: The drug is tested on Victivallis vadensis strain: ATCC BAA-548 for biotransformation. The drug concentrations were measured before and after a 12-h incubation by liquid-chromatography-coupled mass spectrometry (LC–MS)

[3] = The drug is tested on Clostridium sporogenes strain: ATCC15579 for biotransformation. The drug concentrations were measured before and after a 12-h incubation by liquid-chromatography-coupled mass spectrometry (LC–MS); conditions: 2 µM
[4] = The drug is tested on Anaerococcus hydrogenalis strain: DSM7454 for biotransformation. The drug concentrations were measured before and after a 12-h incubation by liquid-chromatography-coupled mass spectrometry (LC–MS); conditions: 2 µM
[5] = The drug is tested on Collinsella aerofaciens strain: ATCC25986 for biotransformation. The drug concentrations were measured before and after a 12-h incubation by liquid-chromatography-coupled mass spectrometry (LC–MS); conditions: 2 µM
[6] = akkermansia muciniphila, 12 h, 2 µM
Description: The drug is tested on Akkermansia muciniphila strain: ATCC BAA-835 for biotransformation. The drug concentrations were measured before and after a 12-h incubation by liquid-chromatography-coupled mass spectrometry (LC–MS)

[7] = The drug is tested on Clostridium scindens strain: ATCC35704 for biotransformation. The drug concentrations were measured before and after a 12-h incubation by liquid-chromatography-coupled mass spectrometry (LC–MS); conditions: 2 µM
[8] = bifidobacterium adolescentis, 12 h, 2 µM
Description: The drug is tested on Bifidobacterium adolescentis strain: ATCC 15703 for biotransformation. The drug concentrations were measured before and after a 12-h incubation by liquid-chromatography-coupled mass spectrometry (LC–MS)

[9] = The drug is tested on Coprococcus comes strain: ATCC27758 for biotransformation. The drug concentrations were measured before and after a 12-h incubation by liquid-chromatography-coupled mass spectrometry (LC–MS); format: ADME; set-up: dose 2 uM, timepoint 0 vs 12 hours; conditions: 2 µM
[10] = The drug is tested on Subdoligranulum variabile strain: DSM15176 for biotransformation. The drug concentrations were measured before and after a 12-h incubation by liquid-chromatography-coupled mass spectrometry (LC–MS); conditions: 2 µM
[11] = The drug is tested on Bacteroides xylanisolvens strain: DSM18836 for biotransformation. The drug concentrations were measured before and after a 12-h incubation by liquid-chromatography-coupled mass spectrometry (LC–MS); conditions: 2 µM
[12] = The drug is tested on Bacteroides coprophilus strain: DSM18228 for biotransformation. The drug concentrations were measured before and after a 12-h incubation by liquid-chromatography-coupled mass spectrometry (LC–MS); conditions: 2 µM
[13] = The drug is tested on Providencia stuartii strain: ATCC25827 for biotransformation. The drug concentrations were measured before and after a 12-h incubation by liquid-chromatography-coupled mass spectrometry (LC–MS); conditions: 2 µM
[14] = The drug is tested on Anaerotruncus colihominis strain: DSM17241 for biotransformation. The drug concentrations were measured before and after a 12-h incubation by liquid-chromatography-coupled mass spectrometry (LC–MS); conditions: 2 µM
[15] = anaerostipes sp., 12 h, 2 µM
Description: The drug is tested on Anaerostipes sp. strain: fecal isolate for biotransformation. The drug concentrations were measured before and after a 12-h incubation by liquid-chromatography-coupled mass spectrometry (LC–MS)

[16] = The drug is tested on Clostridium ramosum strain: DSM1402 for biotransformation. The drug concentrations were measured before and after a 12-h incubation by liquid-chromatography-coupled mass spectrometry (LC–MS); conditions: thomasclavelia ramosa, 2 µM
[17] = The drug is tested on Collinsella intestinalis strain: DSM13280 for biotransformation. The drug concentrations were measured before and after a 12-h incubation by liquid-chromatography-coupled mass spectrometry (LC–MS); conditions: 2 µM
[18] = The drug is tested on Bacteroides pectinophilus strain: ATCC43243 for biotransformation. The drug concentrations were measured before and after a 12-h incubation by liquid-chromatography-coupled mass spectrometry (LC–MS); conditions: 2 µM
[19] = The drug is tested on Dorea formicigenerans strain: ATCC27755 for biotransformation. The drug concentrations were measured before and after a 12-h incubation by liquid-chromatography-coupled mass spectrometry (LC–MS); conditions: 2 µM
[20] = The drug is tested on Enterococcus faecalis strain: V583 for biotransformation. The drug concentrations were measured before and after a 12-h incubation by liquid-chromatography-coupled mass spectrometry (LC–MS); conditions: 2 µM
[21] = The drug is tested on Ruminococcus gnavus strain: ATCC29149 for biotransformation. The drug concentrations were measured before and after a 12-h incubation by liquid-chromatography-coupled mass spectrometry (LC–MS); conditions: mediterraneibacter gnavus, 2 µM
[22] = The drug is tested on Ruminococcus torques strain: ATCC27756 for biotransformation. The drug concentrations were measured before and after a 12-h incubation by liquid-chromatography-coupled mass spectrometry (LC–MS); format: ADME; set-up: dose 2 uM, timepoint 0 vs 12 hours; conditions: 2 µM
[23] = The drug is tested on Bacteroides fragilis strain: ATCC43859 for biotransformation. The drug concentrations were measured before and after a 12-h incubation by liquid-chromatography-coupled mass spectrometry (LC–MS); conditions: 2 µM
[24] = The drug is tested on Eubacterium ventriosum strain: ATCC27560 for biotransformation. The drug concentrations were measured before and after a 12-h incubation by liquid-chromatography-coupled mass spectrometry (LC–MS); format: ADME; set-up: dose 2 uM, timepoint 0 vs 12 hours; conditions: 2 µM
[25] = bacteroides fragilis, 12 h, 2 µM
Description: The drug is tested on Bacteroides fragilis strain: NCTC 9343 for biotransformation. The drug concentrations were measured before and after a 12-h incubation by liquid-chromatography-coupled mass spectrometry (LC–MS)

[26] = The drug is tested on Bacteroides cellulosilyticus strain: DSM14838 for biotransformation. The drug concentrations were measured before and after a 12-h incubation by liquid-chromatography-coupled mass spectrometry (LC–MS); conditions: 2 µM
[27] = The drug is tested on Eubacterium hallii strain: DSM3353 for biotransformation. The drug concentrations were measured before and after a 12-h incubation by liquid-chromatography-coupled mass spectrometry (LC–MS); conditions: anaerobutyricum hallii, 2 µM
[28] = The drug is tested on Blautia luti strain: DSM14534 for biotransformation. The drug concentrations were measured before and after a 12-h incubation by liquid-chromatography-coupled mass spectrometry (LC–MS); format: ADME; set-up: dose 2 uM, timepoint 0 vs 12 hours; conditions: 2 µM
[29] = The drug is tested on Bifidobacterium ruminantium strain: fecal isolate for biotransformation. The drug concentrations were measured before and after a 12-h incubation by liquid-chromatography-coupled mass spectrometry (LC–MS); conditions: 2 µM
[30] = The drug is tested on Clostridium symbiosum strain: ATCC14940 for biotransformation. The drug concentrations were measured before and after a 12-h incubation by liquid-chromatography-coupled mass spectrometry (LC–MS); conditions: 2 µM
[31] = The drug is tested on Bacteroides sp. WH2 strain: WH2 for biotransformation. The drug concentrations were measured before and after a 12-h incubation by liquid-chromatography-coupled mass spectrometry (LC–MS); conditions: bacteroides sp. wh2, 12 h, 2 µM
[32] = The drug is tested on Ruminococcus lactaris strain: ATCC29176 for biotransformation. The drug concentrations were measured before and after a 12-h incubation by liquid-chromatography-coupled mass spectrometry (LC–MS); conditions: 2 µM
[33] = The drug is tested on Bacteroides uniformis strain: ATCC8492 for biotransformation. The drug concentrations were measured before and after a 12-h incubation by liquid-chromatography-coupled mass spectrometry (LC–MS); conditions: 2 µM
[34] = The drug is tested on Bacteroides vulgatus strain: ATCC8482 for biotransformation. The drug concentrations were measured before and after a 12-h incubation by liquid-chromatography-coupled mass spectrometry (LC–MS); conditions: phocaeicola vulgatus, 2 µM
[35] = parabacteroides johnsonii, 12 h, 2 µM
Description: The drug is tested on Parabacteroides johnsonii strain: DSM18315 for biotransformation. The drug concentrations were measured before and after a 12-h incubation by liquid-chromatography-coupled mass spectrometry (LC–MS)

[36] = bacteroides eggerthii, 12 h, 2 µM
Description: The drug is tested on Bacteroides eggerthii strain: DSM20697 for biotransformation. The drug concentrations were measured before and after a 12-h incubation by liquid-chromatography-coupled mass spectrometry (LC–MS)

[37] = The drug is tested on Eubacterium rectale strain: ATCC33656 for biotransformation. The drug concentrations were measured before and after a 12-h incubation by liquid-chromatography-coupled mass spectrometry (LC–MS); conditions: agathobacter rectalis, 2 µM
[38] = bacteroides intestinalis, 12 h, 2 µM
Description: The drug is tested on Bacteroides intestinalis strain: DSM17393 for biotransformation. The drug concentrations were measured before and after a 12-h incubation by liquid-chromatography-coupled mass spectrometry (LC–MS)

[39] = segatella copri, 12 h, 2 µM
Description: The drug is tested on Prevotella copri strain: DSM18205 for biotransformation. The drug concentrations were measured before and after a 12-h incubation by liquid-chromatography-coupled mass spectrometry (LC–MS)

[40] = The drug is tested on Clostridium hathewayi strain: DSM13479 for biotransformation. The drug concentrations were measured before and after a 12-h incubation by liquid-chromatography-coupled mass spectrometry (LC–MS); conditions: hungatella hathewayi, 2 µM
[41] = clostridioides difficile, 12 h, 2 µM
[42] = enterocloster bolteae, 12 h, 2 µM
[43] = The drug is tested on Clostridium asparagiforme strain: DSM15981 for biotransformation. The drug concentrations were measured before and after a 12-h incubation by liquid-chromatography-coupled mass spectrometry (LC–MS); format: ADME; set-up: dose 2 uM, timepoint 0 vs 12 hours; conditions: enterocloster asparagiformis, 2 µM
[44] = The drug is tested on Clostridium spiroforme strain: DSM1552 for biotransformation. The drug concentrations were measured before and after a 12-h incubation by liquid-chromatography-coupled mass spectrometry (LC–MS); conditions: thomasclavelia spiroformis, 2 µM

- Bacterial Biotransformation [1]: Compound NOT metabolized
- Bacterial Biotransformation [2]: Compound NOT metabolized
- Bacterial Biotransformation [3]: Compound NOT metabolized
- Bacterial Biotransformation [4]: Compound NOT metabolized
- Bacterial Biotransformation [5]: Compound NOT metabolized
- Bacterial Biotransformation [6]: Compound NOT metabolized
- Bacterial Biotransformation [7]: Compound NOT metabolized
- Bacterial Biotransformation [8]: Compound NOT metabolized
- Bacterial Biotransformation [9]: Compound NOT metabolized
- Bacterial Biotransformation [10]: Compound NOT metabolized
- Bacterial Biotransformation [11]: Compound metabolized
- Bacterial Biotransformation [12]: Compound NOT metabolized
- Bacterial Biotransformation [13]: Compound NOT metabolized
- Bacterial Biotransformation [14]: Compound NOT metabolized
- Bacterial Biotransformation [15]: Compound NOT metabolized
- Bacterial Biotransformation [16]: Compound NOT metabolized
- Bacterial Biotransformation [17]: Compound NOT metabolized
- Bacterial Biotransformation [18]: Compound NOT metabolized
- Bacterial Biotransformation [19]: Compound NOT metabolized
- Bacterial Biotransformation [20]: Compound NOT metabolized
- Bacterial Biotransformation [21]: Compound NOT metabolized
- Bacterial Biotransformation [22]: Compound NOT metabolized
- Bacterial Biotransformation [23]: Compound metabolized
- Bacterial Biotransformation [24]: Compound NOT metabolized
- Bacterial Biotransformation [25]: Compound NOT metabolized
- Bacterial Biotransformation [26]: Compound metabolized
- Bacterial Biotransformation [27]: Compound NOT metabolized
- Bacterial Biotransformation [28]: Compound NOT metabolized
- Bacterial Biotransformation [29]: Compound NOT metabolized
- Bacterial Biotransformation [30]: Compound NOT metabolized
- Bacterial Biotransformation [31]: Compound NOT metabolized
- Bacterial Biotransformation [32]: Compound NOT metabolized
- Bacterial Biotransformation [33]: Compound metabolized
- Bacterial Biotransformation [34]: Compound metabolized
- Bacterial Biotransformation [35]: Compound NOT metabolized
- Bacterial Biotransformation [36]: Compound NOT metabolized
- Bacterial Biotransformation [37]: Compound NOT metabolized
- Bacterial Biotransformation [38]: Compound NOT metabolized
- Bacterial Biotransformation [39]: Compound NOT metabolized
Structure (SMILES): CCOC(=O)[C@H](CCc1ccccc1)N[C@@H](C)C(=O)N1[C@H](C(=O)O)C[C@@H]2CCC[C@@H]21

Structure (SMILES): Br.NC(=O)C(c1ccccc1)(c1ccccc1)[C@@H]1CCN(CCc2ccc3c(c2)CCO3)C1 [DARIFENACIN HYDROBROMIDE]
- Bacterial Biotransformation [40]: Compound NOT metabolized
- Bacterial Biotransformation [41]: Compound NOT metabolized
- Bacterial Biotransformation [3]: Compound NOT metabolized
- Bacterial Biotransformation [7]: Compound NOT metabolized
- Bacterial Biotransformation [42]: Compound NOT metabolized
- Bacterial Biotransformation [16]: Compound NOT metabolized
- Bacterial Biotransformation [43]: Compound NOT metabolized
- Bacterial Biotransformation [30]: Compound NOT metabolized
- Bacterial Biotransformation [44]: Compound NOT metabolized

From ChEMBL document CHEMBL5303573, “Mapping human microbiome drug metabolism by gut bacteria and their genes” (Nature, 2019)
